According to patent US12421254B2, “KRAS modulators and uses thereof” (Quanta Therapeutics, Inc., priority 2023, dated 2025):

Key:
[1] = target: GST-tagged KRAS-G12V (2-169) (Homo sapiens, UniProt P01116, G12V); assay: Nucleotide exchange assay (NEA), SOS-mediated, HTRF, KRAS G12V; format: biochemical; settings: Table 4; IC50 extracted at 90 min; 80 nM SOS
Procedure, shortened: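 Exchange onto fluorescent GTP-DY-647P1 (150 nM final) catalysed by 80 nM SOS1cat was followed by Tb-anti-GST HTRF at RT for up to 90 min, after 1 h compound pre-incubation with 0.25 nM GST-tagged KRAS-G12V (2-169), pH 7.3. DMSO = 0%, no-SOS blank = 100%; 4-parameter IC50 taken at 90 min.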

[2] = test system: phospho-ERK in SW620 (KRAS-G12V) cells; assay: pERK In Cell Western (ICW) assay (Method B), SW620; format: cell-based
Procedure, shortened: (§1)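 Read-out is In-Cell Western phospho-ERK signal divided by DRAQ5 per well, as percent of blank control, fitted with a 4-parameter variable-slope model for IC50. Compounds were dosed as 9-point half-log series for 3 h at 37°C on AGS, GP2D (G12D) or SW620 (G12V) cells plated the day before.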

[3] = target: GST-tagged KRAS-G12D (2-169) (Homo sapiens, UniProt P01116, G12D); assay: Nucleotide exchange assay (NEA), SOS-mediated, HTRF, KRAS G12D; format: biochemical; settings: Table 4; IC50 extracted at 30 min; 20 nM SOScat; read-out: NEA G12D IC50
Procedure, shortened: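 SOS1cat-driven loading of fluorescent GTP-DY-647P1 (150 nM) onto GST-KRAS-G12D (2-169, 0.25 nM) read by time-resolved FRET; SOScat 20 nM, compound preincubated with KRAS 1 h at RT. Signal blanked to no-SOS reactions, normalized to DMSO; IC50 fitted from the 30-min read.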

[4] = test system: phospho-ERK in GP2D (KRAS-G12D) cells; assay: pERK In Cell Western (ICW) assay (Method B), GP2D; format: cell-based
Procedure, shortened: as §1

[5] = Homo sapiens, SW-620, 3 h, Table 4

GST-tagged KRAS-G12V (2-169), sequence (P01116 2-169 isoform P01116-2 G12V): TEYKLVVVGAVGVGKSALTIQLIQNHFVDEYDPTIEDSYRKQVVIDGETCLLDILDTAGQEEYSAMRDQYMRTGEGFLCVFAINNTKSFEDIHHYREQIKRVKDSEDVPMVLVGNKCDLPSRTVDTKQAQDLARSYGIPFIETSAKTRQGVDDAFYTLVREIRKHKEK
GST-tagged KRAS-G12D (2-169), sequence (P01116 2-169 isoform P01116-2 G12D): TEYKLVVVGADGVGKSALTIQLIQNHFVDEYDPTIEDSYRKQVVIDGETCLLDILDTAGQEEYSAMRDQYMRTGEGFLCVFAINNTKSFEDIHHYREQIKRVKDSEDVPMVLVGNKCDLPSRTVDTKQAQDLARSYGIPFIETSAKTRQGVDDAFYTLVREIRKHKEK

Row | Compound | IC50 [1] [µM] | IC50 [2, 5] [µM] | IC50 [3] [µM] | IC50 ([4]; GP2d, 3 h, Table 4) [µM] | IC50 ([2]; Table 4, 3 hours) [µM] | IC50 ([4]; Table 4, 3 hours) [µM]
1 | N#Cc1c(N)sc2c1C1(CC2)CN(c2nc(OC[C@@]34CCCN3C[C@H](F)C4)nc(N3CCCCC(C#N)C3)n2)C1 (stereo partly drawn) [Compound 74, 2-amino-1′-[4-(3-cyanoazepan-1-yl)-6-[[(2R,8S)-2-fluoro-1,2,3,5,6,7-hexahydropyrrolizin-8-yl]methoxy]-1,3,5-triazin-2-yl]spiro[5,6-dihydrocyclopenta[b]thiophene-4,3′-azetidine]-3-carbonitrile] | < 0.01 | 0.1 to 1 | 0.01 to 0.1 | 0.1 to 1 | – | –
2 | N#Cc1c(N)sc2c1C1(CC2)CN(c2nc(OC[C@@]34CCCN3C[C@H](F)C4)nc(N3CCCOCC3)n2)C1 [Compound 89, 2-amino-1′-[4-[[(2R,8S)-2-fluoro-1,2,3,5,6,7-hexahydropyrrolizin-8-yl]methoxy]-6-(1,4-oxazepan-4-yl)-1,3,5-triazin-2-yl]spiro[5,6-dihydrocyclopenta[b]thiophene-4,3′-azetidine]-3-carbonitrile] | < 0.01 | 0.1 to 1 | 0.01 to 0.1 | 0.1 to 1 | – | –
3 | C[C@H](c1cc(N)ncc1F)N(C)c1nc(OC[C@@]23CCCN2C[C@H](F)C3)nc(N2CC3(CCc4sc(N)c(C#N)c43)C2)n1 [Compound 142, 2-amino-1′-[4-[[(1R)-1-(2-amino-5-fluoro-4-pyridyl)ethyl]-methyl-amino]-6-[[(2R,8S)-2-fluoro-1,2,3,5,6,7-hexahydropyrrolizin-8-yl]methoxy]-1,3,5-triazin-2-yl]spiro[5,6-dihydrocyclopenta[b]thiophene-4,3′-azetidine]-3-carbonitrile] | < 0.01 | – | < 0.01 | – | 0.01 to 0.1 | 0.01 to 0.1
4 | CC(O)CN(Cc1cccnc1N)c1nc(OC[C@@]23CCCN2C[C@H](F)C3)nc(N2CC3(CCc4sc(N)c(C#N)c43)C2)n1 (stereo partly drawn) [Compound 141, 2-amino-1′-[4-[(2-amino-3-pyridyl)methyl-(2-hydroxypropyl)amino]-6-[[(2R,8S)-2-fluoro-1,2,3,5,6,7-hexahydropyrrolizin-8-yl]methoxy]-1,3,5-triazin-2-yl]spiro[5,6-dihydrocyclopenta[b]thiophene-4,3′-azetidine]-3-carbonitrile] | < 0.01 | 0.1 to 1 | 0.01 to 0.1 | 1 to 20 | – | –
5 | CC(c1nsnc1N)N(C)c1nc(OC[C@@]23CCCN2C[C@H](F)C3)nc(N2CC3(CCc4sc(N)c(C#N)c43)C2)n1 (stereo partly drawn) [Compound 170, -amino-1′-[4-[1-(4-amino-1,2,5-thiadiazol-3-yl)ethyl-methyl-amino]-6-[[(2R,8S)-2-fluoro-1,2,3,5,6,7-hexahydropyrrolizin-8-yl]methoxy]-1,3,5-triazin-2-yl]spiro[5,6-dihydrocyclopenta[b]thiophene-4,3′-azetidine]-3-carbonitrile] | < 0.01 | 0.01 to 0.1 | 0.01 to 0.1 | 0.1 to 1 | – | –
6 | CC(c1ccc(F)nc1N)N(C)c1nc(OC[C@@]23CCCN2C[C@H](F)C3)nc(N2CC3(CCc4sc(N)c(C#N)c43)C2)n1 (stereo partly drawn) [Compound 162, 2-amino-1′-[4-[1-(2-amino-6-fluoro-3-pyridyl)ethyl-methyl-amino]-6-[[(2R,8S)-2-fluoro-1,2,3,5,6,7-hexahydropyrrolizin-8-yl]methoxy]-1,3,5-triazin-2-yl]spiro[5,6-dihydrocyclopenta[b]thiophene-4,3′-azetidine]-3-carbonitrile] | < 0.01 | 0.01 to 0.1 | 0.01 to 0.1 | 0.1 to 1 | – | –
7 | CC(c1cc(Cl)nnc1N)N(C)c1nc(OC[C@@]23CCCN2C[C@H](F)C3)nc(N2CC3(CCc4sc(N)c(C#N)c43)C2)n1 (stereo partly drawn) [Compound 132, 2′-amino-1-(4-((1-(3-amino-6-chloropyridazin-4-yl)ethyl)(methyl)amino)-6-(((2R,7aS)-2-fluorotetrahydro-1H-pyrrolizin-7a(5H)-yl)methoxy)-1,3,5-triazin-2-yl)-5′,6′-dihydrospiro[azetidine-3,4′-cyclopenta[b]thiophene]-3′-carbonitrile] | < 0.01 | 0.1 to 1 | 0.01 to 0.1 | 1 to 20 | – | –
8 | C[C@@]1(CO)C[C@@H](O)CN1c1nc(OC[C@@]23CCCN2C[C@H](F)C3)nc(N2CC3(CCc4sc(N)c(C#N)c43)C2)n1 [Compound 59, 2-amino-1′-[4-[[(2R,8S)-2-fluoro-1,2,3,5,6,7-hexahydropyrrolizin-8-yl]methoxy]-6-[(2S,4R)-4-hydroxy-2-(hydroxymethyl)-2-methyl-pyrrolidin-1-yl]-1,3,5-triazin-2-yl]spiro[5,6-dihydrocyclopenta[b]thiophene-4,3′-azetidine]-3-carbonitrile] | 0.01 to 0.1 | ≥ 20 | 0.1 to 1 | ≥ 20 | – | –
9 | CC(C#N)N(CC(F)F)c1nc(OC[C@@]23CCCN2C[C@H](F)C3)nc(N2CC3(C2)SCc2sc(N)c(C#N)c23)n1 (stereo partly drawn) [Compound 258, 2-amino-1′-[4-[1-cyanoethyl(2,2-difluoroethyl)amino]-6-[[(2R,8S)-2-fluoro-1,2,3,5,6,7-hexahydropyrrolizin-8-yl]methoxy]-1,3,5-triazin-2-yl]spiro[6H-thieno[2,3-c]thiophene-4,3′-azetidine]-3-carbonitrile] | < 0.01 | 0.01 to 0.1 | < 0.01 | 0.01 to 0.1 | – | –
10 | CN(C)CC1(COc2nc(N3CC4(C3)SCc3sc(N)c(C#N)c34)nc(N3CCC[C@@](C)(O)C3)n2)CC1(F)F (stereo partly drawn) [Compound 104, 2-amino-1′-[4-[[1-[(dimethylamino)methyl]-2,2-difluoro-cyclopropyl]methoxy]-6-[(3R)-3-hydroxy-3-methyl-1-piperidyl]-1,3,5-triazin-2-yl]spiro[6H-thieno[2,3-c]thiophene-4,3′-azetidine]-3-carbonitrile] | < 0.01 | 0.01 to 0.1 | < 0.01 | < 0.01 | – | –
11 | CCN(c1nc(OCC23CCCN2CCC3)nc(N2CC3(C2)SCc2sc(N)c(C#N)c23)n1)[C@H](C)c1cccnc1N [Compound 206, (R)-2′-amino-1-(4-((1-(2-aminopyridin-3-yl)ethyl)(ethyl)amino)-6-((tetrahydro-1H-pyrrolizin-7a(5H)-yl)methoxy)-1,3,5-triazin-2-yl)-6′H-spiro[azetidine-3,4′-thieno[3,4-b]thiophene]-3′-carbonitrile] | < 0.01 | 0.01 to 0.1 | < 0.01 | < 0.01 | – | –
12 | CCN(c1nc(OCC2(COC)CCCN2)nc(N2CC3(C2)SCc2sc(N)c(C#N)c23)n1)[C@H](C)c1cccnc1N (stereo partly drawn) [Compound 202, 2-amino-1′-[4-[[(1R)-1-(2-amino-3-pyridyl)ethyl]-ethyl-amino]-6-[[2-(methoxymethyl)pyrrolidin-2-yl]methoxy]-1,3,5-triazin-2-yl]spiro[6H-thieno[3,4-b]thiophene-4,3′-azetidine]-3-carbonitrile] | < 0.01 | 0.01 to 0.1 | < 0.01 | 0.01 to 0.1 | – | –
13 | CC(c1cn(C)nc1N)N(C)c1nc(OC[C@@]23CCCN2C[C@H](F)C3)nc(N2CC3(CCc4sc(N)c(C#N)c43)C2)n1 (stereo partly drawn) [Compound 157, amino-1′-[4-[1-(3-amino-1-methyl-pyrazol-4-yl)ethyl-methyl-amino]-6-[[(2R,8S)-2-fluoro-1,2,3,5,6,7-hexahydropyrrolizin-8-yl]methoxy]-1,3,5-triazin-2-yl]spiro[5,6-dihydrocyclopenta[b]thiophene-4,3′-azetidine]-3-carbonitrile] | 0.01 to 0.1 | 1 to 20 | 0.1 to 1 | 1 to 20 | – | –
14 | CCN(c1nc(OCC23CCCN2CCN(C)C3)nc(N2CC3(C2)SCc2sc(N)c(C#N)c23)n1)[C@H](C)c1cccnc1N (stereo partly drawn) [Compound 223, 2-amino-1′-[4-[[(1R)-1-(2-amino-3-pyridyl)ethyl]-ethyl-amino]-6-[(2-methyl-1,3,4,6,7,8-hexahydropyrrolo[1,2-a]pyrazin-8a-yl)methoxy]-1,3,5-triazin-2-yl]spiro[6H-thieno[3,4-b]thiophene-4,3′-azetidine]-3-carbonitrile] | < 0.01 | 0.01 to 0.1 | < 0.01 | 0.01 to 0.1 | – | –
15 | N#Cc1c(N)sc2c1C1(CC2)CN(c2nc(OCC3(C#N)CC3)nc(OCC3(CN4CCOCC4)CC3)n2)C1 [Compound 38, 2-amino-1′-[4-[(1-cyanocyclopropyl)methoxy]-6-[[1-(morpholinomethyl)cyclopropyl]methoxy]-1,3,5-triazin-2-yl]spiro[5,6-dihydrocyclopenta[b]thiophene-4,3′-azetidine]-3-carbonitrile] | < 0.01 | 0.1 to 1 | 0.01 to 0.1 | 1 to 20 | – | –
16 | CCN(c1nc(OCC23CCC(COC2)N3)nc(N2CC3(C2)SCc2sc(N)c(C#N)c23)n1)[C@H](C)c1cccnc1N (stereo partly drawn) [Compound 204, 1-(4-((3-oxa-8-azabicyclo[3.2.1]octan-1-yl)methoxy)-6-(((R)-1-(2-aminopyridin-3-yl)ethyl)(ethyl)amino)-1,3,5-triazin-2-yl)-2′-amino-6′H-spiro[azetidine-3,4′-thieno[3,4-b]thiophene]-3′-carbonitrile] | < 0.01 | 0.01 to 0.1 | 0.01 to 0.1 | 0.1 to 1 | – | –
